Key:
[1] = system: IL-6 release from primary human astrocytes; assay: LPS-induced cytokine release from primary human astrocytes, IL-6; type: cell-based
Procedure: (§1) The following study was undertaken to investigate whether contemplated compounds and (+)NLX affect LPS-induced release of the pro-inflammatory cytokine (IL-1β, IL-6 and TNF-α) release from primary human astrocytes. […]
(§2) Primary astrocytes culture was prepared according to the provider's instructions (Lonza). The adherent astrocytes were trypsinized by 0.25% trypsin-EDTA, then collected and sub-cultured in 12-well plate (1.2 ml/well). […] Vehicle groups were pretreated with 0.1% DMSO only. Following addition of LPS, incubation continued for 24 hours. Culture medium was used as the blank and the levels of cytokines, TNF-α, IL-6 and IL-1β in 200 μl of culture medium were determined. Each well was sampled twice.
(§3) Plates were washed 3 times with ice-cold 50 mM Tris HCl (pH 7.4) and incubated at 30° C. with 200 μl medium derived from the above mentioned conditions. Plates were washed 3 times with ice-cold 50 mM Tris HCl (pH 7.4) and incubated at 30° C. with 0.5 μg/well un-conjugated rabbit anti-anti-INF-α, -IL-6 and -IL-1β for 1 hour. After two 1 minute washes with 50 mM Tris HCl (pH 7.4), each well was incubated in 0.5 μg/well FITC-conjugated anti-rabbit IgG (human and mouse absorbed) for 1 hour at 30° C. Plates were washed twice with 200 μl ice-cold Tris HCl, pH 7.4 and the residual […] signals were determined by multimode plate reader, DTX880 (Beckman).

[2] = system: TNF-α release from primary human astrocytes; assay: LPS-induced cytokine release from primary human astrocytes, TNF-α; type: cell-based
Procedure: as §1, §2, §3

[3] = system: IL-1β release from primary human astrocytes; assay: LPS-induced cytokine release from primary human astrocytes, IL-1β; type: cell-based
Procedure: as §1, §2, §3

mu opiate receptor (MOR) = target: T1, mu opiate receptor (MOR) (Rattus norvegicus, UniProt P33535); assay: MOR agonist activity, [35S]GTPγS binding assay using striatal membranes; type: biochemical; design: MOR agonist activity, [35S]GTPγS binding to Gαo: reference not given here; conditions: for % DAMGO (0.1 μM): 0.1 μM compound relative to DAMGO; for % DAMGO + BFNA: 1 μM compound + BFNA relative to DAMGO + BFNA; for % DAMGO (1 μM): 1 μM compound relative to DAMGO
T1 construct: from tissue; host or cells: striatal membrane preparation (rat striatum)
Procedure: To assess the mu opiate receptor (MOR) agonist activity of positive compounds from the FLNA screening, compounds were tested in a [^35S]GTPγS binding assay using striatal membranes.
Striatal tissue was homogenized in 10 volumes of ice cold 25 mM HEPES buffer, pH 7.4, which contained 1 mM EGTA, 100 mM sucrose, 50 μg/ml leupeptin, 0.04 mM PMSF, 2 μg/ml soybean trypsin inhibitor and 0.2% 2-mercaptoethanol. The homogenates were centrifuged at 800×g for 5 minutes and the supernatants were centrifuged at 49,000×g for 20 minutes. The resulting pellets were suspended in 10 volume of reaction buffer, which contained 25 mM HEPES, pH 7.5, 100 mM NaCl, 50 μg/ml leupeptin, 2 μg/ml soybean trypsin inhibitor, 0.04 mM PMSF and 0.02% […].
The resultant striatal membrane preparation (200 μg) was admixed and maintained (incubated) at 30° C. for 5 minutes in reaction buffer as above that additionally contained 1 mM MgCl2 and 0.5 nM [^35S]GTPγS (0.1 μCi/assay, PerkinElmer Life and Analytical Sciences) in a total volume of 250 μl and continued for 5 minutes in the absence or presence of 0.1-10 μM of an assayed compound of interest. The reaction was terminated by dilution with 750 μl of ice-cold reaction buffer that contained 20 mM MgCl2 and 1 mM EGTA and immediate centrifugation at 16,000×g for 5 minutes.
The resulting pellet was solubilized by sonicating for 10 seconds in 0.5 ml of immunoprecipitation buffer containing 0.5% digitonin, 0.2% sodium cholate and 0.5% NP-40. Normal rabbit serum (1 μl) was added to 1 ml of lysate and incubated at 25° C. for 30 minutes. Nonspecific immune complexes were removed by incubation with 25 μl of protein A/G-conjugated agarose beads at 25° C. for 30 minutes followed by centrifugation at 5,000×g at 4° C. for 5 minutes. The supernatant was divided and separately incubated at 25° C. for 30 minutes with antibodies raised against Gαo proteins (1:1,000 dilutions).
The immunocomplexes so formed were collected by incubation at 25° C. for 30 minutes with 40 μl of agarose-conjugated protein A/G beads and centrifugation at 5,000×g at 4° C. for 5 minutes. The pellet was washed and suspended in buffer containing 50 mM Tris-HCl, pH 8.0, and 1% NP-40. The radioactivity in the suspension was determined by liquid scintillation spectrometry. […] DAMGO (H-Tyr-D-Ala-Gly-N-MePhe-Gly-OH; 1 or 10 μM) was used as a positive control.

[4] = target: Bn-VAKGL pentapeptide of filamin A (FLNA) (Homo sapiens, UniProt P21333); assay: FITC-NLX-based FLNA screening assay (FLNA peptide binding assay); conditions: 10 nM FITC-NLX
Procedure: The final assay volume is 100 μl.
Compounds are tested in triplicate or quadruplicate.

[5] = Mouse hot-water tail-flick test; type: in vivo; conditions: orally administered, 56 mg/kg
Procedure: The mouse “tail flick” test was used to assay the relative antinociceptive activity of compositions containing a compound to be assayed. This assay was substantially that disclosed by Xie et al., 2005 J. Neurosci 25:409-416.
The mouse hot-water tail-flick test was performed by placing the distal third of the tail in a water bath maintained at 52° C. The latency until tail withdrawal from the bath was determined and compared among the treatments. A 10 second cutoff was used to avoid tissue damage. Data are converted to percentage of antinociception by the following formula: (response latency−baseline latency)/(cutoff−baseline latency)×100 to generate dose-response curves. […] Relative potency was determined as a ratio of the A50 values.
To assess tolerance to the antinociceptive effect, the compound was administered twice daily for 7 days at an A90 dose (dose that results in a 90% antinociceptive effect in the 52° C. warm-water tail-flick test), and the tail-flick test was performed daily after the a.m. dose. […] Assays were typically carried out separately using at least 32 and 56 mg/kg dosages, with some assays also separately carried out at 18 and 100 mg/kg.

[6] = 10 pM compound 2 hours prior to LPS (1 μg/ml) and continued 24 hours
[7] = 1 nM compound 2 hours prior to LPS (1 μg/ml) and continued 24 hours
[8] = 0.1 μM compound, striatal membranes
[9] = 1 μM compound + BFNA (1 μM β-funaltrexamine)
[10] = 1 μM compound, striatal membranes

T1 sequence (P33535 whole entry): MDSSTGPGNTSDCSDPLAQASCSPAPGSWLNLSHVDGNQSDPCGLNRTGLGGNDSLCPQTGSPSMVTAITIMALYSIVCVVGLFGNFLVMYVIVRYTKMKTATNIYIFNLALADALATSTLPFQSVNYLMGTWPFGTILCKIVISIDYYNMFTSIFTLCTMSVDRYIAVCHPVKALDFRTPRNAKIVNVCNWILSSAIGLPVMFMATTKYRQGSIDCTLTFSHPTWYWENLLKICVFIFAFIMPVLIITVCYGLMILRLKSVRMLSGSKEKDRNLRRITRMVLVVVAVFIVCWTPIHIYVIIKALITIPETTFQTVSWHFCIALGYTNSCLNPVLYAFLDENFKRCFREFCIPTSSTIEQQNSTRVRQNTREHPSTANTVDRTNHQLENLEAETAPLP

SMILES	MOR agonist activity, [35S]GTPγS binding to Gαo (mu opiate receptor (MOR); [8])	MOR agonist activity, [35S]GTPγS binding to Gαo (mu opiate receptor (MOR); [9])	MOR agonist activity, [35S]GTPγS binding to Gαo (mu opiate receptor (MOR); [10])	other results
C=CCN1CC[C@]23c4c5ccc(O)c4O[C@H]2C(=O)CC[C@]3(O)[C@H]1C5 [(+)Naloxone, (+)naloxone, reference compound]	–	–	–	IL-6 Average % (±SEM) [1, 6]: 56.9 (4.4) %; IL-6 Average % (±SEM) [1, 7]: 6.8 (4.3) %; TNF-α Average % (±SEM) [2, 6]: 58.6 (2.0) %; TNF-α Average % (±SEM) [2, 7]: 9.2 (6.0) %; IL-1β Average % (±SEM) [3, 6]: 75.9 (4.5) %; IL-1β Average % (±SEM) [3, 7]: 10.5 (4.8) %
COc1ccc(S(=O)(=O)N2CCOC23CCN(C(=O)OC(C)(C)C)CC3)cc1 [Compound C0043]	175.4%	83.3%	242.6%	% DAMGO (0.1 μM) (mu opiate receptor (MOR)): 103.8%; % DAMGO + BFNA (mu opiate receptor (MOR)): 501.8%; % DAMGO (1 μM) (mu opiate receptor (MOR)): 110.9%; Percent inhibition of FITC-NLX binding ([4]; 0.01 μM compound): 43.9%; Percent inhibition of FITC-NLX binding ([4]; 0.1 μM compound): 51.3%; Percent inhibition of FITC-NLX binding ([4]; 1 μM compound): 58.0%
O=[N+]([O-])c1ccc(S(=O)(=O)N2CCC3(CC2)NCCCO3)cc1 [Compound C0045]	149.2%	105.3%	238.8%	% DAMGO (0.1 μM) (mu opiate receptor (MOR)): 88.3%; % DAMGO + BFNA (mu opiate receptor (MOR)): 634.3%; % DAMGO (1 μM) (mu opiate receptor (MOR)): 109.1%; Percent inhibition of FITC-NLX binding ([4]; 0.01 μM compound): 39.1%; Percent inhibition of FITC-NLX binding ([4]; 0.1 μM compound): 48.9%; Percent inhibition of FITC-NLX binding ([4]; 1 μM compound): 53.7%
CS(=O)(=O)c1ccc(S(=O)(=O)N2CCOC23CCNCC3)cc1 [Compound C0116M]	258.4%	152.0%	302.8%	–
CC(=O)c1ccc(S(=O)(=O)N2CC(CN(C)C)OC23CCNCC3)cc1 (centres unmarked) [Compound C0118M]	166.2%	79.2%	261.5%	–
CC(=O)c1ccc(S(=O)(=O)N2C(Cc3c[nH]cn3)C(=O)NC23CCNCC3)cc1 (centres unmarked) [Compound C0119M]	105.7%	35.1%	167.8%	–
O=C1CN(Cc2ccccc2)C2(CCN(CC3CC3)CC2)N1 [Compound C0125M]	168.6%	159.7%	195.2%	–
CS(=O)(=O)c1ccc(S(=O)(=O)N2CCOC23CCN(CC2CC2)CC3)cc1 [Compound C0126M]	181.8%	108.5%	265.3%	–
CC(=O)c1ccc(S(=O)(=O)N2CC(CN(C)C)OC23CCN(CC2CC2)CC3)cc1 (centres unmarked) [Compound C0128M]	197.8%	63.9%	286.0%	–
COc1ccc(S(=O)(=O)N2CCOC23CCN(C(C)C)CC3)cc1 [Compound C0133M]	139.4%	72.4%	214.8%	–
Cc1ccc(S(=O)(=O)N2CCOC23CCN(CC2CC2)CC3)cc1 [Compound C0134M]	158.5%	46.6%	207.3%	–
CCc1ccc(S(=O)(=O)N2CCOC23CCN(CC2CC2)CC3)cc1 [Compound C0135M]	161.3%	113.3%	310.1%	–
COc1ccc(S(=O)(=O)N2CCC3(CC2)NCCC(=O)N3)cc1 [Compound C0142M]	143.7%	98.7%	192.5%	–
C[C@@H](NC(=O)[C@@H](N)Cc1ccc(O)cc1)C(=O)NCC(=O)N(C)[C@@H](Cc1ccccc1)C(=O)NCCO [DAMGO, reference compound]	168.5%	53.2%	266.1%	–
CN1CC[C@]23c4c5ccc(O)c4O[C@H]2[C@@H](O)C=C[C@H]3[C@H]1C5 [morphine, reference compound]	–	–	–	Maximum Antinociception (%) [5]: 43%; Time to Max. [5]: 20 min

— patent publication US8614324B2, “Filamin A binding anti-inflammatory and analgesic” (priority 2008, dated 2013)
